# Measured values from patent publication US20220204577A1, “Synthetic Peptides With Affinity for the Interleukin-10 Receptor, Pharmaceutical Composition and Use Thereof as Immunomodulators for Treating Autoimmune, Inflammatory or Allergic Diseases” (Universidade Federal de Uberlândia, priority 2019, published 2022).
# Positions of bridges follow the written chain, without caps; N, C: chain ends. No end group written: not given here.
# Assays:
# Assay type in all cases: cell-based
# [1] = system: mouse basophilic leukemia cells transfected with the human FcεRI IgE receptor (hRBL); test: IgE-mediated release of β-hexosaminidase (basophil degranulation) in hRBL cells; details: 1 μM; versus cells treated with Bet v1 alone; serum from seven birch pollen-allergic donors
# Experimental: The effect of Pep 1 on IgE-mediated release was studied using mouse basophilic leukemia cells transfected with the human FcεRI IgE receptor (hRBL). The hRBL cells were sensitized with serum from seven patients allergic to birch pollen. The cells were stimulated with the antigen and its interaction with immobilized IgEs resulting in the release of β-hexosaminidase.
# When cells were treated with a composition containing Pep 1 to 1 μM (FIG. 10A) or rIL10 (FIG. 10B), the amount of Bet v 1 required to induce the same amount of degranulation was higher than for cells treated with Bet v1 alone (P<0.05). Amount of rBet v 1 (ng/mL) required to induce half the release of β-hexosaminidase using serum from seven birch pollen-allergic donors after treatment with Pep 1 (A) (P<0.05) and rIL10 (B) * P<0.05.
# [2] = system: IFN signaling pathway; test: IFN signaling pathway (SEAP) in Jurkart-Dual reporter cells, peptide pre-treatment then IFN-α; details: peptide 1 hour, then IFN-α (104 EU/ml); 10 μM; 12 hours
# Experimental: Therefore, we cannot confirm whether they were able to affect the activation pathway (FIGS. 6A, B, and C) in the same or better way than the negative control (rIL-10). In the assays shown in FIGS. 5 (A, B, and C) and 6 (A, B, and C), IFN expression was analyzed in Jurkart-Dual reporter cells. In the assays shown in FIGS. 5 A, B, and C, cells were treated with peptides for 1 hour followed by the addition of IFN-α (104 EU/ml). Secreted Embryonic Alkaline Phosphatase (SEAP) production was measured after 12 hours of treatment (FIG. 5A), 24 hours of treatment (FIG. 5B), and 48 hours of treatment (FIG. 5C). In the assays shown in FIGS. 6 A, B, and C, cells were treated with IFN-α (104 EU/ml) for 1 hour, and then peptides were added. SEAP production was measured after (D) 12 hours of treatment (E) 24 hours of treatment, and (F) 48 hours of treatment. IFN-α (104 EU/mL) was used as a positive control and rIL-10 (0.4 ng/mL) as a negative control. * P<0.05.
# [3] = system: TLR4 signaling pathway; test: TLR4 signaling pathway (SEAP) in HEK cells, LPS pre-treatment then peptides; details: LPS then peptide, 12 hours
# Experimental: (§1) HEK cells were used to investigate the ability of the peptides to reduce activation of the TLR4 signaling pathway after 12 hours of treatment.
# (§2) In the assay shown in FIG. 7A, the cells were treated with peptides for 1 hour, then LPS (100 ng/ml) was added. SEAP production was measured after 12 hours of treatment. In the assay shown in FIG. 7B, the cells were treated with LPS (100 ng/ml) for 1 hour, then the peptides were added. SEAP production was measured after 12 hours of treatment. LPS (100 ng/mL) was used as positive control and IL-10 (0.4 ng/mL) as negative control. * P<0.05; ** P<0.005; *** P<0.0005.
# [4] = system: T cells from allergic patients; test: Proliferation of T cells from allergic patients; details: 10 μM; 24 hours; Bet v 1 positive control
# Experimental: To confirm the ability of the synthesized peptides to decrease dendritic cell activation, a composition containing Pep 1 at a concentration of 10 μM was chosen and the proliferation of T cells from allergic patients was measured after 24 hours of treatment. […] Cells were treated with Bet v 1 as a positive control, and an irrelevant peptide (IR) was used as a negative control.
# [5] = system: Dendritic cells from mice bone marrow; test: Co-stimulatory molecules on bone marrow dendritic cells; details: CD11c+ dendritic cells, 24 hours
# Experimental: Dendritic cells from mice bone marrow were isolated to analyze the effect of synthesized peptides Pep 1, Pep 2, Pep 3, and Pep 4 at two concentrations, 1 μM, and 10 μM, on reducing cell activation. […] In the assays, CD11c+CD86 cells (FIG. 8A) and CD11c+CD40+ cells (FIG. 8B) were used after 24 hours of treatment. LPS (100 ng/mL) was used as a positive control. * P<0.05; ** P<0.005.
# [6] = system: cell line J774; test: Cytokines production after treatment of cell line J774; set-up: levels of MCP-1: dose or concentration left out as unconfirmed
# Experimental: After 24 hours of treatment, the produced amounts of IL-6, MCP-1, and TNF-α were measured. […] In contrast, when cells were treated with a composition of Pep 1 followed by incubation with LPS (1 mg/ml) for 24 hours to induce an inflammatory response, the peptide was able to decrease the production of IL-6, MCP-1, and TNF-α.
# Each decrease was significant compared to cells treated with LPS alone (positive control). * P<0.05; ** P<0.005; *** P<0.0005
# [7] = system: TLR4 signaling pathway; test: TLR4 signaling pathway (SEAP) in HEK cells, peptide pre-treatment then LPS; details: peptide then LPS; 0.005 μM; 12 hours
# Experimental: as §1, §2
# [8] = system: NFκB, IFN, or TLR4 signaling pathways; test: Reporter cell lines treated with peptides alone (no activating molecule); details: various concentrations, 12, 24 and 48 hours
# Experimental: To investigate the ability of the peptides to interfere with the NFkB, IFN, and TLR4 pathways, reporter cell lines were used. To analyze whether the isolated peptides (without activation molecules) could induce any type of activation, the isolated peptides were tested in the cell lines during 12, 24, and 48 hours of treatment. […] As an example, FIGS. 2A, 2B, and 2C show an analysis of NFkB expression after stimulation with the synthesized peptides described in this report. The cells were treated with the synthesized peptides Pep 1, Pep 2, Pep 3, and Pep 4 at various concentrations for 12, 24, and 48 hours, without activating molecules. Luciferase was then measured after 12 hours of treatment (FIG. 2A), 24 hours of treatment (FIG. 2B), and 48 hours of treatment (FIG. 2C). […] TNF-α (200 ng/mL) was used as a positive control.
substance,measurement,setting,value
"Pep 1: synthetic peptide with affinity to the Interleukin-10 receptor, SEQ ID No 01, with disulfide bridges (HACSAVIKSSCGGGS; disulfide 3-11 (inferred))",amount of Bet v 1 required to induce the same amount of degranulation,[1],higher
same,activation of the IFN signaling pathway,[2],activation of the pathway was reduced
same,activation of the TLR4 pathway,[3]; 0.001 μM,activation of the TLR4 pathway was more significantly reduced
same,activation of the TLR4 pathway,[3]; 0.005 μM,activation of the TLR4 pathway was more significantly reduced
same,activation of the TLR4 pathway,[3]; 0.01 μM,activation of the TLR4 pathway was more significantly reduced
same,activation of the TLR4 pathway,[3]; 0.05 μM,activation of the TLR4 pathway was more significantly reduced
same,activation of the TLR4 pathway,[3]; 0.1 μM,activation of the TLR4 pathway was more significantly reduced
same,T cell proliferation,[4],decreased T cell proliferation
same,expression of CD86+,[5]; 1 μM,decreased the expression of CD86+
same,expression of CD86+,[5]; 10 μM,decreased the expression of CD86+
same,"IL-10, IFN-γ, or IL12p70 production",[6]; 24 hours of treatment (data not shown),No interference
same,levels of IL-6,"[6]; peptide then LPS 24 hours, 1 μM and 10 μM printed beside IL-6, versus LPS alone",significantly reduced
same,levels of TNF-α,"[6]; peptide then LPS 24 hours, 1 μM, 10 μM and 100 μM, versus LPS alone",significantly reduced
same,levels of MCP-1,"[6]; peptide then LPS 24 hours, versus LPS alone",significantly reduced
same,cytokine response to peptide alone,[6]; without LPS stimulation (data not shown),unable to elicit any response
same,TLR4 pathway activation,[7],significantly reduced pathway activation
same,NFkB expression (luciferase),[8],unable to elicit any response
